# Assay results published in US20260355196A1, “INHIBITORS AND DEGRADERS OF PIP4K PROTEIN” (Larkspur Biosciences, Inc., priority 2023, published 2026).
# Molecular target: T1, PIP4K2C (Homo sapiens, UniProt Q8TBX8)
# T1 sequence (Q8TBX8 1-421): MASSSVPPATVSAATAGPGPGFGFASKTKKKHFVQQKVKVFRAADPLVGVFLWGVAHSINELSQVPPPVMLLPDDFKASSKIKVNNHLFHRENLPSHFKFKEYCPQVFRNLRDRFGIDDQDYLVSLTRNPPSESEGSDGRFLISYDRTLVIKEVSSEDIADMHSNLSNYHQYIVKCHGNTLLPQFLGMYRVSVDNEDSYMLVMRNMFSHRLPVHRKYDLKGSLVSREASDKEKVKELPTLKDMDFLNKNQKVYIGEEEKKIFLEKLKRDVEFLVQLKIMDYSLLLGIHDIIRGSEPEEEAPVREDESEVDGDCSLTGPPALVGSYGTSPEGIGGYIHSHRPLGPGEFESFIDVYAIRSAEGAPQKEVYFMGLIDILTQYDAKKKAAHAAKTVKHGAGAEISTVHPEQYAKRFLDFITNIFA
# Experiment: HiBiT PIP4K2C degradation assay in MOLT-4 cells (endogenous PIP4K2C C-terminally tagged with HiBiT)
# Format: cell-based
# Set-up: untagged in primary human PBMCs and monocyte-derived dendritic cells
# Settings: 24 hours incubation, MOLT-4, top concentration 10 micromolar; read-out: HiBIT-degradation MOLT4 PIP4k2C 24 hours DC50
# How it was run: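 Cells are plated onto compound dilutions (10 points, 3-fold, top 10 micromolar) and incubated 24 or 6 hours at 37 C. Lytic HiBiT detection then quantifies tagged endogenous PIP4K2C in MOLT-4, and a Hill fit yields DC50.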
row,Structure (SMILES),DC50 [nM]
1,"O=C1CCC(n2c(=O)oc3cc(C4CCN(CC5CCN(CC(=O)N[C@H]6CC[C@H](Nc7ncc(F)c(-c8cccc(N9CCCOC9=O)c8)n7)CC6)CC5)CC4)ccc32)C(=O)N1 (stereo partly drawn) [Compound 362, trans-2-(4-((4-(3-(2,6-dioxopiperidin-3-yl)-2-oxo-2,3-dihydrobenzo[d]oxazol-6-yl)piperidin-1-yl)methyl)piperidin-1-yl)-N-(4-((5-fluoro-4-(3-(2-oxo-1,3-oxazinan-3-yl)phenyl)pyrimidin-2-yl)amino)cyclohexyl)acetamide]",< 500
2,"O=C1CCC(n2c(=O)oc3cc(C4CCN(CC5CCN(CC(=O)N[C@H]6CC[C@H](Nc7ncc(F)c(-c8cccc(N9CCOC9=O)c8)n7)CC6)CC5)CC4)ccc32)C(=O)N1 (stereo partly drawn) [Compound 363, trans-2-[4-[[4-[3-(2,6-dioxo-3-piperidyl)-2-oxo-1,3-benzoxazol-6-yl]-1-piperidyl]methyl]-1-piperidyl]-N-[4-[[5-fluoro-4-[3-(2-oxooxazolidin-3-yl)phenyl]pyrimidin-2-yl]amino]cyclohexyl]acetamide]",< 500
3,"O=C1CCC(Nc2ccc(C3CCN(CC4CCN(CC(=O)N[C@H]5CC[C@H](Nc6ncc(F)c(-c7cccc(-c8ccc[nH]c8=O)c7)n6)CC5)CC4)CC3)c(F)c2)C(=O)N1 (stereo partly drawn) [Compound 365, trans-2-(4-((4-(4-((2,6-dioxopiperidin-3-yl)amino)-2-fluorophenyl)piperidin-1-yl)methyl)piperidin-1-yl)-N-(4-((5-fluoro-4-(3-(2-oxo-1,2-dihydropyridin-3-yl)phenyl)pyrimidin-2-yl)amino)cyclohexyl)acetamide]",< 500
4,"O=C1CCC(n2c(=O)oc3cc(C4CCN(CC5CCN(C(=O)CN6CCC(Nc7ncc(F)c(-c8cccc(-c9ccccc9)c8)n7)CC6=O)CC5)CC4)ccc32)C(=O)N1 (centres unmarked) [Compound 366, 3-(6-(1-((1-(2-(4-((4-([1,1′-biphenyl]-3-yl)-5-fluoropyrimidin-2-yl)amino)-2-oxopiperidin-1-yl)acetyl)piperidin-4-yl)methyl)piperidin-4-yl)-2-oxobenzo[d]oxazol-3 (2H)-yl)piperidine-2,6-dione]",< 500
5,"O=C1CCC(n2c(=O)oc3cc(C4CCN(CCC5CCN(C(=O)[C@H]6CC[C@H](Nc7ncc(F)c(-c8cccc(-c9ccc[nH]c9=O)c8)n7)CC6)CC5)CC4)ccc32)C(=O)N1 (stereo partly drawn) [Compound 368, 3-(6-(1-(2-(1-(trans-4-((5-fluoro-4-(3-(2-oxo-1,2-dihydropyridin-3-yl)phenyl)pyrimidin-2-yl)amino)cyclohexane-1-carbonyl)piperidin-4-yl)ethyl)piperidin-4-yl)-2-oxobenzo[d]oxazol-3 (2H)-yl)piperidine-2,6-dione]",< 500
6,"O=C1CCC(n2c(=O)oc3cc(C4CCN(CC5CCN(CC(=O)N[C@H]6CC[C@H](Nc7ncc(Cl)c(-c8cccc(-n9ccccc9=O)c8)n7)CC6)CC5)CC4)ccc32)C(=O)N1 (stereo partly drawn) [Compound 369, trans-N-(4-((5-chloro-4-(3-(2-oxopyridin-1(2H)-yl)phenyl)pyrimidin-2-yl)amino)cyclohexyl)-2-(4-((4-(3-(2,6-dioxopiperidin-3-yl)-2-oxo-2,3-dihydrobenzo[d]oxazol-6-yl)piperidin-1-yl)methyl)piperidin-1-yl)acetamide]",< 500
7,"O=C1CCC(n2c(=O)oc3cc(C4CCN(CC5CCN(CC(=O)N6CCC(Nc7ncc(F)c(-c8cccc(N9CCCOC9=O)c8)n7)CC6)CC5)CC4)ccc32)C(=O)N1 (centres unmarked) [Compound 371, 3-(6-(1-((1-(2-(4-((5-fluoro-4-(3-(2-oxo-1,3-oxazinan-3-yl)phenyl)pyrimidin-2-yl)amino)piperidin-1-yl)-2-oxoethyl)piperidin-4-yl)methyl)piperidin-4-yl)-2-oxobenzo[d]oxazol-3 (2H)-yl)piperidine-2,6-dione]",< 500
8,"O=C1CCC(n2c(=O)oc3cc(C4CCN(CC5CCN(CC(=O)N6CCC(Nc7ncc(F)c(-c8cccc(N9CCOC9=O)c8)n7)CC6)CC5)CC4)ccc32)C(=O)N1 (centres unmarked) [Compound 372, 3-(6-(1-((1-(2-(4-((5-fluoro-4-(3-(2-oxooxazolidin-3-yl)phenyl)pyrimidin-2-yl)amino)piperidin-1-yl)-2-oxoethyl)piperidin-4-yl)methyl)piperidin-4-yl)-2-oxobenzo[d]oxazol-3 (2H)-yl)piperidine-2,6-dione]",< 500
9,"O=C1CCC(n2c(=O)oc3cc(C4CCN(CC5CCN(CC(=O)N6CCC(Nc7ncc(Cl)c(-c8cccc(-n9ccccc9=O)c8)n7)CC6)CC5)CC4)ccc32)C(=O)N1 (centres unmarked) [Compound 373, 3-(6-(1-((1-(2-(4-((5-chloro-4-(3-(2-oxopyridin-1(2H)-yl)phenyl)pyrimidin-2-yl)amino)piperidin-1-yl)-2-oxoethyl)piperidin-4-yl)methyl)piperidin-4-yl)-2-oxobenzo[d]oxazol-3 (2H)-yl)piperidine-2,6-dione]",> 5000

# Other lines, results leading:
row,DC50 [nM],Structure (SMILES)
1,< 500,"O=C1CCC(n2c(=O)oc3cc(N4CCC(CN5CCC(CC(=O)N[C@H]6CC[C@H](Nc7ncc(F)c(-c8cccc(-n9ccccc9=O)c8)n7)CC6)CC5)CC4)ccc32)C(=O)N1 (stereo partly drawn) [Compound 358, trans-2-(1-((1-(3-(2,6-dioxopiperidin-3-yl)-2-oxo-2,3-dihydrobenzo[d]oxazol-6-yl)piperidin-4-yl)methyl)piperidin-4-yl)-N-(4-((5-fluoro-4-(3-(2-oxopyridin-1(2H)-yl)phenyl)pyrimidin-2-yl)amino)cyclohexyl)acetamide]"
2,< 500,"O=C1CCC(n2c(=O)oc3cc(N4CCC(CN5CCN(CC(=O)N[C@H]6CC[C@H](Nc7ncc(F)c(-c8cccc(-n9ccccc9=O)c8)n7)CC6)CC5)CC4)ccc32)C(=O)N1 (stereo partly drawn) [Compound 360, 2-(4-((1-(3-(2,6-dioxopiperidin-3-yl)-2-oxo-2,3-dihydrobenzo[d]oxazol-6-yl)piperidin-4-yl)methyl)piperazin-1-yl)-N-(trans-4-((5-fluoro-4-(3-(2-oxopyridin-1(2H)-yl)phenyl)pyrimidin-2-yl)amino)cyclohexyl)acetamide]"
3,< 500,"O=C1CCC(Nc2ccc(C3CCN(CC4CCN(CC(=O)N5CCC(Nc6ncc(F)c(-c7cccc(-c8ccc[nH]c8=O)c7)n6)CC5)CC4)CC3)c(F)c2)C(=O)N1 (centres unmarked) [Compound 364, 3-((3-fluoro-4-(1-((1-(2-(4-((5-fluoro-4-(3-(2-oxo-1,2-dihydropyridin-3-yl)phenyl)pyrimidin-2-yl)amino)piperidin-1-yl)-2-oxoethyl)piperidin-4-yl)methyl)piperidin-4-yl)phenyl)amino)piperidine-2,6-dione]"
4,< 500,"O=C1CCC(n2c(=O)oc3cc(C4CCN(CC5CCN(C(=O)CN6CCC(Nc7ncc(F)c(-c8cccc(-n9ccccc9=O)c8)n7)CC6=O)CC5)CC4)ccc32)C(=O)N1 (centres unmarked) [Compound 367, 3-(6-(1-((1-(2-(4-((5-fluoro-4-(3-(2-oxopyridin-1(2H)-yl)phenyl)pyrimidin-2-yl)amino)-2-oxopiperidin-1-yl)acetyl)piperidin-4-yl)methyl)piperidin-4-yl)-2-oxobenzo[d]oxazol-3 (2H)-yl)piperidine-2,6-dione]"
5,< 500,"CC(C(=O)N1CCC(Nc2ncc(F)c(-c3cccc(-n4ccccc4=O)c3)n2)CC1)N1CCC(CN2CCC(c3ccc4c(c3)oc(=O)n4C3CCC(=O)NC3=O)CC2)CC1 (centres unmarked) [Compound 370, 3-(6-(1-((1-(1-(4-((5-fluoro-4-(3-(2-oxopyridin-1(2H)-yl)phenyl)pyrimidin-2-yl)amino)piperidin-1-yl)-1-oxopropan-2-yl)piperidin-4-yl)methyl)piperidin-4-yl)-2-oxobenzo[d]oxazol-3 (2H)-yl)piperidine-2,6-dione]"
6,< 500,"O=C1CCC(Nc2ccc(N3CCN(CC4CCN(C(=O)[C@H]5CC[C@H](Nc6ncc(F)c(-c7cccc(-n8ccccc8=O)c7)n6)CC5)CC4)CC3)c(F)c2)C(=O)N1 (stereo partly drawn) [Compound 374, trans-3-((3-fluoro-4-(4-((1-(4-((5-fluoro-4-(3-(2-oxopyridin-1(2H)-yl)phenyl)pyrimidin-2-yl)amino)cyclohexane-1-carbonyl)piperidin-4-yl)methyl)piperazin-1-yl)phenyl)amino)piperidine-2,6-dione]"
7,< 500,"O=C1CCC(Nc2ccc(N3CCN(CC4CCN(C(=O)[C@H]5CC[C@H](Nc6ncc(F)c(-c7cccc(-c8ccc[nH]c8=O)c7)n6)CC5)CC4)CC3)c(F)c2)C(=O)N1 (stereo partly drawn) [Compound 376, trans-3-((3-fluoro-4-(4-((1-(4-((5-fluoro-4-(3-(2-oxo-1,2-dihydropyridin-3-yl)phenyl)pyrimidin-2-yl)amino)cyclohexane-1-carbonyl)piperidin-4-yl)methyl)piperazin-1-yl)phenyl)amino)piperidine-2,6-dione]"

# Same assay, conditions: read-out: HiBIT-degradation MOLT4 PIP4k2C 24 hours DC50; 24 hours incubation, MOLT-4, top concentration 10 micromolar
row,Structure (SMILES),DC50 [nM]
1,"O=C1CCC(n2c(=O)oc3cc(C4CCN(CC5CCN(CC(=O)N[C@H]6CC[C@H](Nc7ncc(F)c(C8CCCN(C(=O)C9CC9)C8)n7)CC6)CC5)CC4)ccc32)C(=O)N1 (stereo partly drawn) [Compound 359, trans-N-(4-((4-(1-(cyclopropanecarbonyl)piperidin-3-yl)-5-fluoropyrimidin-2-yl)amino)cyclohexyl)-2-(4-((4-(3-(2,6-dioxopiperidin-3-yl)-2-oxo-2,3-dihydrobenzo[d]oxazol-6-yl)piperidin-1-yl)methyl)piperidin-1-yl)acetamide]",< 500
